The test has as its system Plasmodium falciparum. In words: GSK_TCMDC: Inhibition of Plasmodium falciparum 3D7 in whole erythrocytes, using parasite LDH activity as an index of growth. In kind it is functional, organism-based. The note with it: Plasmodium falciparum, 3D7.

SMILES strings stand for the structures.

`CCc1c[nH]c2c(N3CCCS3(=O)=O)cc(C(=O)N[C@@H](Cc3ccccc3)[C@H](O)CNC(C)(C)c3cccc(C(F)(F)F)c3)cc12`: the XC50 worked out at 228 nM. The compound `FC(F)(F)c1ccc2[nH]c(-c3ccc(-c4cccc(CNCc5cnn(-c6ccccc6)n5)c4)cc3)nc2c1` registered an XC50 of 652 nM. `COc1ccc2ncc(F)c([C@H](O)CN3CCC(NCc4ccc5c(c4)NC(=O)CO5)CC3)c2c1` showed an XC50 of 172 nM. For `Cn1cc(CN2CCC(CCOC(c3ccccc3)c3ccccc3)CC2)cn1` the value was 259 nM; for `Oc1ccc2ccccc2c1CNC1CCCCCC1`, 933 nM; for `CN(C)CCCOc1ccc(CNCc2cccc(Oc3ccc(Cl)cc3)c2)cc1`, 824 nM.

Regarding `FC(F)(F)c1cccc(CCNc2nccc(NCc3ccccc3Cl)n2)c1`, the XC50 is 1170 nM. `CC(=NNC(S)=NCCc1ccccc1)c1ccccn1` showed an XC50 of 218 nM. For `CCCC1N=C(N)N=C(N)N1c1ccc(OC)cc1` (stereo unspecified) the value was 234 nM.

For `COc1cc2c(cc1OC)C(c1ccc(Br)cc1)CN(C)CC2` (stereo unspecified), the XC50 was found to be 943 nM. For `CC(=O)Nc1cccc(NC(=O)CSc2ccc(-c3nc4ccccc4[nH]3)cn2)c1` the value was 559 nM; for `COc1ccc(Cc2c(Cl)nc3nc(N)nc(N)c3c2C)c(OC)c1OC`, 725 nM; for `O=C(Nc1cccc(OC2CCN(Cc3ccsc3)CC2)c1)c1ccc(C(F)(F)F)cc1`, 765 nM. For `CCCCCCN1CCC(NCc2ccc(CN(C)C)cc2)CC1` the value was 1270 nM.

`CN(N=Cc1ccccc1)C(=N)NCCCC#Cc1cccc(CN2CCCC2)c1` had an XC50 of 1790 nM.

As to `CN1CC(c2ccc(Cl)c(Cl)c2)OC1=N` (stereo unspecified), the XC50 is 283 nM. For `CCCCNC(=O)c1[nH]c2c(NC(=O)COc3ccccc3)cccc2c1-c1cccc(NC(=O)C(N)CO)c1` (stereo unspecified) the value was 852 nM; for `O=[N+]([O-])c1ccc2nccnc2c1`, 1070 nM. `CCN(CC)CCCCOc1ccc2c(c1)C(=O)c1cc(OCCCCN(CC)CC)ccc1-2` gave an XC50 of 759 nM. For the compound `CC[C@H]1CN2CC[C@H]1C[C@@H]2[C@@H](O)c1ccnc2ccccc12`, the XC50 was found to be 279 nM. For `Cc1cc(C(=O)CN2C(=O)NC3(CCCc4ccccc43)C2=O)c(C)n1Cc1ccc(F)cc1` (stereo unspecified) the value was 970 nM. For `CCN(CC)/C(=N/C(=N)Nc1ccc(C)cc1)NCCCCCCN/C(=N\C(=N)Nc1ccc(C)cc1)N(CC)CC` the value was 539 nM; for `COc1ccc(N2CCN(CCCCNC(=O)c3ccc(NC(=O)c4ccc(Cl)cc4)cc3)CC2)c(C)c1`, 758 nM.

As for `Oc1ccc(CCCNc2nc(NCc3cccc4ccccc34)nc(NC3CCNCC3)n2)cc1`, the XC50 was 1130 nM.

The compound `CN1CCN(Cc2ccc(-c3cc4c(Nc5ccc(OCc6cccc(F)c6)c(Cl)c5)ncnc4s3)[nH]2)CC1` registered an XC50 of 766 nM. For `CC(C)c1ccc(NC(=O)c2ccc(CN3CCCN(Cc4cccc(Cl)c4)CC3)cc2)cc1` the value was 1160 nM; for `COC(=O)c1cccc(CNCc2ccc(-c3cccc(-c4nc5cc(C(F)(F)F)ccc5[nH]4)c3)cc2)c1`, 156 nM; for `CCCN(C(=O)c1ccccc1C)c1nnc(-c2ccccc2C)s1`, 1110 nM.

`CN(C)CCNC(=O)c1ccc2c(c1)ncn2-c1cc(OCc2ccccc2C(F)(F)F)c(C(N)=O)s1.CN(C)CCNC(=O)c1ccc2ncn(-c3cc(OCc4ccccc4C(F)(F)F)c(C(N)=O)s3)c2c1`: the XC50 was 809 nM. For `COc1ccc(/C=C/C(=O)N2CCc3cc4nccc(N5CCN6CCC[C@H]6C5)c4cc32)cc1` the value was 642 nM.

On to `COc1cccc(Nc2c(C(N)=O)cnc3ccc(-c4ccccc4)cc23)c1`, for which the XC50 came out at 771 nM. The compound `O=C(N[C@@H](CC1CCCCC1)C(=O)NC1CCCc2ccccc21)c1ccc(O)c(-c2cccc(C(F)(F)F)c2)c1` (stereo partly specified) had an XC50 of 600 nM. `CCOc1cc(C)ccc1N1CCN(CCCCNC(=O)c2ccc(NC(=O)c3ccc(Cl)cc3)cc2)CC1` had an XC50 of 637 nM.

In turn, `COc1cc2c(cc1NS(=O)(=O)c1ccc(OCc3ccc(Br)cc3)cc1)CCN(C1CCC1)CC2` registered an XC50 of 843 nM.

`Cc1ccc(NC(=O)N2CCC(n3c(-c4ccccc4)nc4cccnc43)CC2)cc1F` returned an XC50 of 534 nM. For `CC(C)(C)c1ccc(O)c(CNC2CCCCC2)c1` the value was 264 nM; for `COc1cc(C(=O)NC2CCN(Cc3ccccc3)CC2)ccc1-c1nc2cc(Cl)c(C)cc2[nH]1`, 304 nM; for `O=S(=O)(Nc1cccc(CCN2CCC(N3CCCCC3)CC2)c1)c1ccc(Oc2ccccc2)cc1`, 769 nM. `CC(=O)Oc1ccc(C(=O)Oc2ccccc2C#CC#N)cc1OC(C)=O`: the XC50 is 320 nM. For `COc1ccc2nccc([C@@H](O)CN3CCC(NCc4cc5ccccc5o4)CC3)c2c1` the value was 658 nM.

As to `CCc1nc(N)nc(N)c1-c1ccc(F)c(F)c1`, the XC50 came to 417 nM. For `Cn1cc(CN2CCCC(COC(c3ccccc3)c3ccccc3)C2)cn1` (stereo unspecified) the value was 775 nM; for `CCC1=C[C@@H]2CN(C1)Cc1c([nH]c3ccccc13)[C@@](C(=O)OC)(c1cc3c(cc1OC)N(C)[C@H]1[C@@](O)(C(=O)OC)[C@H](O)[C@]4(CC)C=CCN5CC[C@]31[C@@H]54)C2`, 866 nM. For `Cc1ccc(Oc2ccccc2NC(=O)CCc2nc3ccccc3c(=O)[nH]2)cc1` the value was 827 nM; for `COC(=O)c1ccc(CN2CCC(N(Cc3cccc(Oc4ccccc4)c3)S(=O)(=O)c3ccc(NC(C)=O)cc3)CC2)cc1`, 1050 nM.

Consider `CN1CCN(Cc2ccc(-c3ccc4c(Nc5ccc(Cl)cc5F)ccnc4c3)o2)CC1`, for which the XC50 turned out to be 155 nM. For `Cc1cccc2nc(-c3ccc(-c4ccc(CN5CCC(C(N)=O)CC5)cc4)cc3)[nH]c12` the value was 932 nM; for `CC[C@H]1CN(Cc2ccco2)CC[C@H]1CCCc1ccnc2ccc(O)cc12`, 1270 nM. In turn, `CCCCC(=O)Nc1ccc(Nc2nc(C)cc(N3CCCC3)n2)cc1` yielded an XC50 of 1060 nM. For `CCOc1cc(C)ccc1C1CCN(CCCCNC(=O)c2ccc(-c3ccc(Cl)cn3)cc2)CC1` the value was 1610 nM; for `O=C(O)CCCN1CCCC(=C(c2ccccc2)c2ccccc2)C1`, 1190 nM. Consider `COc1c(C(=O)NC2CCN(Cc3ccccc3)C2)cnc2ccccc12` (stereo unspecified), for which the XC50 worked out at 956 nM. For `c1ccc2[nH]c(-c3ccc(-c4ccc(CN5CCC(N6CCCCC6)CC5)cc4)s3)nc2c1` the value was 153 nM; for `Cc1ccc2ncc(Cl)c(CCN3CCC(NCc4ccc5c(n4)NC(=O)CS5)CC3)c2n1`, 1100 nM. For `O=[N+]([O-])c1ccc(Nc2nc(N/N=C/c3cc(Cl)cc(Cl)c3O)nc(Nc3ccccc3)n2)cc1` the value was 671 nM; for `COc1cc2ncnc(Nc3ccc4nc(Cc5ccccc5)[nH]c4c3)c2cc1OC`, 1480 nM; for `OCCN1CCN(Cc2cccc(-c3ccc(-c4nc5cc(C(F)(F)F)ccc5[nH]4)s3)c2)CC1`, 86.7 nM. For `CN(C)C=Nc1ccc(OCCCCCCOc2ccc(N=CN(C)C)cc2)cc1` the value was 132 nM. On to `COc1ccc(CNC2Cc3ccccc3C2)cc1-c1ccc(S(=O)(=O)NCCN2CCCC2)s1`, for which the XC50 is 195 nM. For `Cc1[nH]c(C)c(-c2ccc(OCCOc3ccc(C(F)(F)F)cn3)cc2)c(=O)c1Br` the value was 138 nM; for `CN(C)C(=O)c1ccc(CN(Cc2ccc(OC(C)(C)C)cc2)Cc2ccc3c(c2)OCCO3)cc1`, 829 nM. For `COc1ccc(NC(=O)C2c3ccccc3C(=O)N(C3CCCC3)C2c2cccs2)c(OC)c1` (stereo unspecified) the value was 1480 nM; for `CCCCCCNC(=N)c1ccc(OCCCCCOc2ccc(C(=N)NCCCCCC)cc2)cc1`, 309 nM; for `CSc1ccc(C[C@@H](C)NC[C@H](O)c2cccc(Cl)c2)cc1`, 940 nM. For `CCCC(CNC(=O)c1cc2c(Cl)cc(Cl)cc2[nH]1)CNc1cc(=O)c2ccccc2[nH]1` (stereo unspecified) the value was 903 nM; for `OC1CCCN(Cc2ccc(-c3ccc(-c4nc5ccccc5[nH]4)cc3)cc2)C1` (stereo unspecified), 838 nM. As for `Cc1cccc(CN2CCCC3(CCN(Cc4ccccc4O)C3)C2)c1` (stereo unspecified), the XC50 came to 801 nM. As to `CCCNCc1ccc(-c2ccc(CN(Cc3cnc(C)cn3)C(=O)c3nn(-c4ccccc4)nc3C)cc2)nc1`, the XC50 amounted to 419 nM. For `COc1cc2c(c(OC)c1[N+](=O)[O-])C=CC1(O2)N(C)c2ccc([N+](=O)[O-])cc2C1(C)C` (stereo unspecified) the value was 905 nM; for `c1ccc(-c2csc(Nc3nc4cc5c(cc4s3)OCO5)n2)nc1`, 579 nM. For `CC(=O)N(C)c1cccc(C(=O)Nc2cccc(-c3cccc(-c4nc5cc(C(F)(F)F)ccc5[nH]4)c3)c2)c1` the value was 236 nM; for `C=CCc1cc(C)ccc1OCCCON1C(N)=NC(N)=NC1(C)C`, 3.2 nM; for `CCc1c(CCNCCCCCCNCCc2ccc(Br)cc2)ccc(OC)c1OC`, 232 nM. For `CC(C)CCNC(=N)Nc1ccc(OCCCCCOc2ccc(NC(=N)NCCC(C)C)cc2)cc1` the value was 1080 nM. Take `FC(F)(F)c1ccc2[nH]c(-c3cccc(-c4cccc(CN5CCN(c6ccncc6)CC5)c4)c3)nc2c1`: the XC50 was 158 nM. For `COc1cc(C)cc(CN2CCC(Cc3ccccc3)CC2)c1O` the value was 1020 nM. `Cc1[nH]c(C)c(-c2ccc(-c3ccccc3F)nc2)c(=O)c1Cl` yielded an XC50 of 250 nM. For `c1ccc(CCNCc2cccc(-c3ccc(CNc4ccc5ncccc5c4)cc3)c2)cc1` the value was 810 nM; for `CN1CCN(CC(=O)Nc2cccc(-c3ccc(-c4nc5cc(F)ccc5[nH]4)s3)c2)CC1`, 679 nM; for `Cc1cccc2nc(-c3cccc(-c4ccc(NC(=O)Cc5ccccn5)cc4)c3)[nH]c12`, 793 nM. For `COC(=O)c1ccc(C[C@@H](C)NC[C@H](O)c2cccc(C(F)(F)F)c2)cc1` the value was 790 nM. Compound `O=C(NC1CCC(CN2CCC(c3c[nH]c4ccccc34)CC2)CC1)c1cnn(-c2ccccc2)c1-c1ccccc1Cl` (stereo unspecified) showed an XC50 of 182 nM.

Compound `CC1(C)CCCN(Cc2c(O)ccc3c(O)c(-c4nc5ccccc5s4)c(=N)oc23)C1` yielded an XC50 of 337 nM.

In turn, `CCN(CC)CCCSc1ccc(-c2ccc(SCCCN(CC)CC)cc2)cc1` showed an XC50 of 1160 nM. Compound `CC(C)CCNC(=O)C1Cc2c([nH]c3cc(Br)ccc23)C2(CCN(Cc3ccccc3)CC2)N1` (stereo unspecified) yielded an XC50 of 792 nM.

With `Cc1cc(NC(=O)Nc2ccc(C(C)(C)C)cc2)c2ccccc2n1`, the XC50 was found to be 719 nM.

Values taken from ChEMBL document CHEMBL1157539, “Thousands of chemical starting points for antimalarial lead identification” (Nature, 2010).
